Source: ChEMBL document CHEMBL3044789, “Comparing weed and crop seedling response to pre-emergence pendimethalin application in Corchorus olitorius and Abelmoschus esculentus” (Crop Prot, 2006)

Assays:
[1] = tested on: Euphorbia heterophylla; assay: Herbicidal activity against Euphorbia heterophylla in Abelmoschus esculentus plots assessed as weed cover at 0.99 kg a.i/ha after 4 weeks (reference value: 22.6 +/- 0.49 %); format: functional
[2] = tested on: Cyperus rotundus; assay: Herbicidal activity against Cyperus rotundus in Abelmoschus esculentus plots assessed as weed cover at 0.66 kg a.i/ha after 4 weeks (reference value: 22.6 +/- 0.49 %); format: functional
[3] = tested on: Synedrella nodiflora; assay: Herbicidal activity against Synedrella nodiflora in Abelmoschus esculentus plots assessed as weed cover at 0.33 kg a.i/ha after 4 weeks (reference value: 22.6 +/- 0.49 %); format: functional
[4] = tested on: Ageratum conyzoides; assay: Herbicidal activity against Ageratum conyzoides in Abelmoschus esculentus plots assessed as weed cover at 0.33 kg a.i/ha after 4 weeks (reference value: 22.6 +/- 0.49 %); format: functional
[5] = tested on: Euphorbia heterophylla; assay: Herbicidal activity against Euphorbia heterophylla in Abelmoschus esculentus plots assessed as major weed growth at 1.32 kg a.i/ha after 2 weeks; format: functional
[6] = tested on: Ageratum conyzoides; assay: Herbicidal activity against Ageratum conyzoides in Abelmoschus esculentus plots assessed as weed recovery at 0.33 kg a.i/ha after 2 weeks (reference value: 60.1 +/- 0.46 %); format: functional
[7] = tested on: Ageratum conyzoides; assay: Herbicidal activity against Ageratum conyzoides in Abelmoschus esculentus plots assessed as weed cover at 1.32 kg a.i/ha after 7 weeks (reference value: 14.7 +/- 0.46 %); format: functional
[8] = tested on: Mimosa pudica; assay: Herbicidal activity against Mimosa pudica in Abelmoschus esculentus plots assessed as weed cover at 0.33 kg a.i/ha after 7 weeks (reference value: 14.7 +/- 0.46 %); format: functional
[9] = tested on: Euphorbia heterophylla; assay: Herbicidal activity against Euphorbia heterophylla in Abelmoschus esculentus plots assessed as weed cover at 0.33 kg a.i/ha after 2 weeks (reference value: 63.5 +/- 0.29 %); format: functional
[10] = tested on: Ageratum conyzoides; assay: Herbicidal activity against Ageratum conyzoides in Abelmoschus esculentus plots assessed as weed cover at 0.33 kg a.i/ha after 2 weeks (reference value: 63.5 +/- 0.29 %); format: functional
[11] = tested on: Talinum fruticosum; assay: Herbicidal activity against Talinum fruticosum in Corchorus olitorius plots assessed as weed cover at 0.99 kg a.i/ha after 7 weeks (reference value: 1.7 +/- 0.56 %); format: functional
[12] = tested on: Chromolaena odorata; assay: Herbicidal activity against Chromolaena odorata in Corchorus olitorius plots assessed as weed cover at 0.99 kg a.i/ha after 7 weeks (reference value: 1.7 +/- 0.56 %); format: functional
[13] = tested on: Abelmoschus esculentus; assay: Phytotoxicity in Abelmoschus esculentus assessed as root length at 1.32 kg a.i/ha treated to soil after 7 weeks (reference value: 2.9 +/- 0.45 mm); format: organism-based; details: in vivo, other, 1176 h
[14] = tested on: Corchorus olitorius; assay: Phytotoxicity in Corchorus olitorius assessed as seedling injury at 0.99 kg a.i/ha applied as solution after 7 weeks relative to control; format: organism-based; details: in vivo, other, 1176 h
[15] = tested on: Corchorus olitorius; assay: Phytotoxicity in Corchorus olitorius assessed as shoot length at 0.33 kg a.i/ha applied as solution after 7 weeks (reference value: 22.9 +/- 0.8 mm); format: organism-based; details: in vivo, other, 1176 h
[16] = tested on: Corchorus olitorius; assay: Phytotoxicity in Corchorus olitorius assessed as seed germination at 0.99 kg a.i/ha applied as solution after 7 weeks relative to untreated control; format: organism-based; details: in vivo, other, 1176 h
[17] = tested on: Ageratum conyzoides; assay: Herbicidal activity against Ageratum conyzoides in Corchorus olitorius plots assessed as weed cover at 0.33 kg a.i/ha after 7 weeks (reference value: 1.7 +/- 0.56 %); format: functional
[18] = tested on: Abelmoschus esculentus; assay: Phytotoxicity in Abelmoschus esculentus assessed as root length at 1.32 kg a.i/ha applied as solution after 7 weeks (reference value: 23 +/- 0.34 mm); format: organism-based; details: in vivo, other, 1176 h
[19] = tested on: Abelmoschus esculentus; assay: Phytotoxicity in Abelmoschus esculentus assessed as root length at 0.66 kg a.i/ha applied as solution after 7 weeks (reference value: 23 +/- 0.34 mm); format: organism-based; details: in vivo, other, 1176 h
[20] = tested on: Ageratum conyzoides; assay: Herbicidal activity against Ageratum conyzoides in Corchorus olitorius plots assessed as weed cover at 1.32 kg a.i/ha after 2 weeks (reference value: 81.7 +/- 0.43 %); format: functional
[21] = tested on: Euphorbia heterophylla; assay: Herbicidal activity against Euphorbia heterophylla in Corchorus olitorius plots assessed as weed cover at 0.66 kg a.i/ha after 2 weeks (reference value: 81.7 +/- 0.43 %); format: functional
[22] = tested on: Synedrella nodiflora; assay: Herbicidal activity against Synedrella nodiflora in Corchorus olitorius plots assessed as weed cover at 0.33 kg a.i/ha after 2 weeks (reference value: 81.7 +/- 0.43 %); format: functional
[23] = tested on: Abelmoschus esculentus; assay: Phytotoxicity in Abelmoschus esculentus assessed as shoot length at 0.33 kg a.i/ha applied as solution after 7 weeks (reference value: 28.7 +/- 0.34 mm); format: organism-based; details: in vivo, other, 1176 h
[24] = tested on: Abelmoschus esculentus; assay: Phytotoxicity in Abelmoschus esculentus assessed as seed germination at 1.32 kg a.i/ha applied as solution after 7 weeks (reference value: 85.7 +/- 0.36 %); format: organism-based; details: in vivo, other, 1176 h
[25] = tested on: Abelmoschus esculentus; assay: Phytotoxicity in Abelmoschus esculentus assessed as seed germination at 0.99 kg a.i/ha applied as solution after 7 weeks (reference value: 85.7 +/- 0.36 %); format: organism-based; details: in vivo, other, 1176 h
[26] = tested on: Euphorbia heterophylla; assay: Herbicidal activity against Euphorbia heterophylla in Corchorus olitorius plots assessed as weed cover at 1.32 kg a.i/ha after 4 weeks (reference value: 20.1+/- 0.57 %); format: functional
[27] = tested on: Commelina diffusa; assay: Herbicidal activity against Commelina diffusa in Corchorus olitorius plots assessed as weed cover at 0.66 kg a.i/ha after 4 weeks (reference value: 20.1+/- 0.57 %); format: functional
[28] = tested on: Corchorus olitorius; assay: Phytotoxicity in Corchorus olitorius assessed as root length at 0.33 kg a.i/ha treated to soil after 7 weeks (reference value: 16.9 +/- 0.09 mm); format: organism-based; details: in vivo, other, 1176 h
[29] = tested on: Corchorus olitorius; assay: Phytotoxicity in Corchorus olitorius assessed as shoot length at 1.32 kg a.i/ha treated to soil after 7 weeks (reference value: 23.7 +/- 0.10 mm); format: organism-based; details: in vivo, other, 1176 h
[30] = tested on: Corchorus olitorius; assay: Phytotoxicity in Corchorus olitorius assessed as shoot length at 0.33 kg a.i/ha treated to soil after 7 weeks (reference value: 23.7 +/- 0.10 mm); format: organism-based; details: in vivo, other, 1176 h
[31] = tested on: Corchorus olitorius; assay: Phytotoxicity in Corchorus olitorius assessed as seedling emergence at 1.32 kg a.i/ha treated to soil after 7 weeks (reference value: 95 +/- 0.05 %); format: organism-based; details: in vivo, other, 1176 h
[32] = tested on: Abelmoschus esculentus; assay: Phytotoxicity in Abelmoschus esculentus assessed as crop seedling injury at 1.32 kg a.i/ha after 2 weeks relative to untreated control; format: organism-based; details: in vivo, 336 h
[33] = tested on: Calopogonium mucunoides; assay: Herbicidal activity against Calopogonium mucunoides in Abelmoschus esculentus plots assessed as weed recovery at 0.99 kg a.i/ha after 2 weeks (reference value: 60.1 +/- 0.46 %); format: functional
[34] = tested on: Mimosa pudica; assay: Herbicidal activity against Mimosa pudica in Abelmoschus esculentus plots assessed as weed recovery at 0.33 kg a.i/ha after 2 weeks (reference value: 60.1 +/- 0.46 %); format: functional
[35] = tested on: Chromolaena odorata; assay: Herbicidal activity against Chromolaena odorata in Corchorus olitorius plots assessed as weed cover at 1.32 kg a.i/ha after 4 weeks (reference value: 20.1+/- 0.57 %); format: functional
[36] = tested on: Synedrella nodiflora; assay: Herbicidal activity against Synedrella nodiflora in Corchorus olitorius plots assessed as weed cover at 0.33 kg a.i/ha after 4 weeks (reference value: 20.1+/- 0.57 %); format: functional

`CCC(CC)Nc1c([N+](=O)[O-])cc(C)c(C)c1[N+](=O)[O-]` [PENDIMETHALIN] showed an Activity [1] of 39.2%, an Activity [2] of 47.9% and an Activity [3] of 53.8%. For the same molecule, the Activity [4] was 53.8%, the Activity [5] was 31 /m2 and the Activity [6] was 39.2%. For the same molecule, the Activity [7] was 82.4%, the Activity [8] was 90% and the Activity [9] was 56.8%. For the same molecule, the Activity [10] was 56.8%, the Activity [11] was 95% and the Activity [12] was 95%. It also gave an Activity [13] of 1.5 mm, an Activity [14] of 46.7% and an Activity [15] of 7 mm. The Activity [16] was 72.7%, the Activity [17] was 100% and the Activity [18] was 11.5 mm. For the same molecule, the Activity [19] was 11.8 mm, the Activity [20] was 41.7% and the Activity [21] was 51.7%. The Activity [22] was 63.3%, the Activity [23] was 14.5 mm and the Activity [24] was 40.2%. It also gave an Activity [25] of 41.1%, an Activity [26] of 33.3% and an Activity [27] of 63.3%. It also gave an Activity [28] of 14.2 mm, an Activity [29] of 19.4 mm and an Activity [30] of 18.8 mm. For the same molecule, the Activity [31] was 83.3%, the Activity [32] was 53.8% and the Activity [33] was 36.2%. It also gave an Activity [34] of 39.2%, an Activity [35] of 33.3% and an Activity [36] of 73.3%.
